Reference: patent US6855730B2, “3-methylidenyl-2-indolinone modulators of protein kinase” (Sugen, Inc., priority 1998, dated 2005)

Target: T1, 3T3 cell line genetically engineered to express human EGF-R (Homo sapiens, UniProt P00533)
T1 construct: expressed in transfected cells; host or cells: 3T3
Assay: EGF-induced BrdU incorporation assay
Assay type: cell-based
Conditions: read-out: BrdU EGF driven IC50
Method: The cellular/catalytic assays described herein are performed in an ELISA format. The general procedure is as follows: a compound is introduced to cells expressing the test kinase, either naturally or recombinantly, for a selected period of time after which, if the test kinase is a receptor, a ligand known to activate the receptor is added. The cells are lysed and the lysate is transferred to the wells of an ELISA plate previously coated with a specific antibody recognizing the substrate of the enzymatic phosphorylation reaction. Non-substrate components of the cell lysate are washed away and the amount of phosphorylation on the substrate is detected with an antibody specifically recognizing phosphotyrosine compared with control cells that were not contacted with a test compound. The cellular/biologic assays described herein measure the amount of DNA made in response to activation of a test kinase, which is a general measure of a proliferative response. The general procedure for this assay is as follows: a compound is introduced to cells expressing the test kinase, either naturally or recombinantly, for a selected period of time after which, if the test kinase is a receptor, a ligand known to activate the receptor is added. After incubation at least overnight, a DNA labeling reagent such as Bromodeoxyuridine (BrdU) or 3H-thymidine is added. The amount of labeled DNA is detected with either an anti-BrdU antibody or by measuring radioactivity and is compared to control cells not contacted with a test compound. […]
Protocol • (1) Cells are seeded at 8000 cells/well in 10% CS, 2mM Gin in DMEM, in a 96 well plate. Cells are incubated overnight at 37° C. in 5% CO2. • (2) After 24 hours, the cells are washed with PBS, and then are serum starved in serum free medium (0% CS DMEM with 0.1% BSA) for 24 hours. • (3) On day 3, ligand (EGF, 2 nM, prepared in DMEM with 0.1% BSA) and test compounds are added to the cells simultaneously. The negative control wells receive serum free DMEM with 0.1% BSA only, the positive control cells receive the ligand (EGF) but no test compound. Test compounds are prepared in serum free DMEM with ligand in a 96 well plate, and serially diluted for 7 test concentrations. • (4) After 20 hours of ligand activation, diluted BrdU labeling reagent (1:100 in DMEM, 0.1% BSA) is added and the cells are incubated with BrdU (final concentration=10 μM) for 1.5 hours. • (5) After incubation with labeling reagent, the medium is removed by decanting and tapping the inverted plate on a paper towel. FixDenat solution is added (50 μl/well) and the plates are incubated at room temperature for 45 minutes on a plate shaker. • (6) The FixDenat solution is thoroughly removed by decanting and tapping the inverted plate on a paper towel. Milk is added (5% dehydrated milk in PBS, 200 μl/well) as a blocking solution and the plate is incubated for 30 minutes at room temperature on a plate shaker. • (7) The blocking solution is removed by decanting and the wells are washed once with PBS. Anti-BrdU-POD solution (1:100 dilution in PBS, 1% BSA) is added (100 μ/well) and the plate is incubated for 90 minutes at room temperature on a plate shaker. • (8) The antibody conjugate is thoroughly removed by decanting and rinsing the wells 5 times with PBS, and the plate is dried by inverting and tapping on a paper towel. • (9) TMB substrate solution is added (100 μl/well) and incubated for 20 minutes at room temperature on a plate shaker until color development is sufficient for photometric detection. • (10) The absorbance of the samples are measured at 410 nm (in “dual wavelength” mode with a filter reading at 490 nm, as a reference wavelength) on a Dynatech ELISA plate reader.

| IC50 | Compound |
| --- | --- |
| 38.6 µM | COc1ccc(/C=C2/C(=O)Nc3cc(NC(C)=O)ccc32)cc1-c1cccs1 [Example 31, N-[3-(4-Methoxy-3-thiophen-2-ylbenzylidene)-2-oxo-2,3-dihydro-1H-indol-6-yl]-acetamide] |
| 30 µM | COc1c(C(C)C)cc(/C=C2/C(=O)Nc3ccc(N)cc32)cc1C(C)C [Example 20, 5-Amino-3-(3,5-diisopropyl-4-methoxy-benzylidene)-1,3-dihydroindol-2-one] |
| 9.3 µM | COc1c(C(C)C)cc(/C=C2/C(=O)Nc3ccc(C)cc32)cc1C(C)C [Example 19, 3-(3,5-Diisopropyl-4-methoxybenzylidene)-5-methyl-1,3-dihydroindol-2-one] |
| 32.9 µM | CC1(C)CCc2cc(/C=C3/C(=O)Nc4ccc(F)cc43)ccc2O1 [Example 23, 3-(2,2-Dimethylchroman-6-ylmethylene)-5-fluoro-1,3-dihydroindol-2-one] |
| 24.1 µM | COc1cc(C=C2C(=O)Nc3ccccc32)c(-c2ccccc2OC)cc1OC [Example 49, 3-(4,5,2′-Trimethoxybiphenyl-2-ylmethylene)-1,3-dihydroindol-2-one] |
| 12.3 µM | CC(C)c1cc(/C=C2/C(=O)Nc3ccc(Br)cc32)cc(C(C)C)c1OCCN1CCOCC1 [Example 57, 5-Bromo-3-[3,5-diisopropyl-4-(2-morpholin-4-ylethoxy)benzylidene]-1,3-dihydroindol-2-one] |
| 28.1 µM | COc1ccc(/C=C2/C(=O)Nc3ccccc32)cc1-c1ccsc1 [Example 35, 3-(4-Methoxy-3-thiophen-3-ylbenzylidene)-1,3-dihydroindol-2-one] |
| 26.8 µM | COc1cc(C)c(C=C2C(=O)Nc3cc(NC(C)=O)ccc32)cc1C(C)C [Example 27, N-[3-(5-Isopropyl-4-methoxy-2-methyl-benzylidene)-2-oxo-2,3-dihydro-1H-indol-6-yl]-acetamide] |
| 28.6 µM | CC(=O)Nc1ccc2c(c1)NC(=O)/C2=C/c1ccc(OCCN2CCOCC2)c(-c2cccs2)c1 [Example 40, N-{3-[4-(2-Morpholin-4-ylethoxy)-3-thiophen-2-ylbenzylidene]-2-oxo-2,3-dihydro-1H-indol-6-yl}-acetamide] |
